Article PMC7561186, “Rational design of balanced dual-targeting antibiotics with limited resistance” (PLoS Biology, 2020)
Values after ≈ are worked out from the molar mass of the structure shown. Where two headings read alike, the source gives them in different places.

Test system: S. aureus clinical isolates
Test: microbe, parasite or virus in culture
Assay type: cell-based

Cc1[nH]c(C(=O)Nc2nc3ccc(C(=O)O)cc3s2)c(Cl)c1Cl [ULD1]
MIC (S. aureus ATCC 29213, MSSA / VSSA, test date 2018-10-25 (three repeat lines)): 1 µg/mL (≈ 2.7 µM) | MIC (Staphylococcus aureus, ATCC 29213 / MSSA, S. aureus ATCC 29213, MSSA / VSSA, test date 2018-10-25 (three repeat lines), read-out: MIC): 0.5 µg/mL (≈ 1.35 µM) | MIC (Staphylococcus aureus, ATCC 29213 / MSSA, S. aureus ATCC 29213, MSSA / VSSA, test date 2018-11-07, read-out: MIC): 0.25 µg/mL (≈ 0.675 µM) | MIC (Staphylococcus aureus, MRSA / NRS 3 / VISA, S. aureus IHMA 1308243, NRS3, MRSA / VISA, read-out: MIC): 1 µg/mL (≈ 2.7 µM) | MIC (Staphylococcus aureus, MRSA / NRS 4 / VISA, S. aureus IHMA 649380, NRS4, MRSA / VISA, read-out: MIC): 0.5 µg/mL (≈ 1.35 µM) | MIC (Staphylococcus aureus, MRSA / NRS 18 / VISA, S. aureus IHMA 649386, NRS18, MRSA / VISA, read-out: MIC): 0.5 µg/mL (≈ 1.35 µM) | MIC (Staphylococcus aureus, MRSA / NRS 19 / VISA, S. aureus IHMA 649387, NRS19, MRSA / VISA, read-out: MIC): 0.5 µg/mL (≈ 1.35 µM) | MIC (Staphylococcus aureus, MRSA / NRS 21 / VISA, S. aureus IHMA 649388, NRS21, MRSA / VISA, read-out: MIC): 1 µg/mL (≈ 2.7 µM) | MIC (Staphylococcus aureus, MRSA / NRS 22 / USA600 / VISA, S. aureus IHMA 649389, NRS22, MRSA / VISA, USA600, read-out: MIC): 0.5 µg/mL (≈ 1.35 µM) | MIC (Staphylococcus aureus, MRSA / NRS 23 / VISA, S. aureus IHMA 649390, NRS23, MRSA / VISA, read-out: MIC): 0.5 µg/mL (≈ 1.35 µM) | MIC (Staphylococcus aureus, MRSA / NRS 24 / VISA, S. aureus IHMA 649391, NRS24, MRSA / VISA, read-out: MIC): 0.5 µg/mL (≈ 1.35 µM) | MIC (Staphylococcus aureus, MRSA / NRS 26, S. aureus IHMA 649392, NRS26, MRSA / VSSA, read-out: MIC): 0.5 µg/mL (≈ 1.35 µM) | MIC (Staphylococcus aureus, MRSA / NRS 27 / VISA, S. aureus IHMA 1308248, NRS27, MRSA / VISA, read-out: MIC): 1 µg/mL (≈ 2.7 µM) | MIC (Staphylococcus aureus, MRSA / NRS 29 / VISA, S. aureus IHMA 1308250, NRS29, MRSA / VISA, read-out: MIC): 0.5 µg/mL (≈ 1.35 µM) | MIC (Staphylococcus aureus, MRSA / NRS 37 / VISA, S. aureus IHMA 1308251, NRS37, MRSA / VISA, read-out: MIC): 0.5 µg/mL (≈ 1.35 µM) | MIC (Staphylococcus aureus, MRSA / NRS 54, S. aureus IHMA 1308253, NRS54, MRSA / VSSA* (*Expected VAN intermediate, confirmed VAN susceptible twice), test date 2018-11-07, read-out: MIC): 0.25 µg/mL (≈ 0.675 µM) | MIC (Staphylococcus aureus, MRSA / NRS 56 / VISA, S. aureus IHMA 1308254, NRS56, MRSA / VISA, read-out: MIC): 0.5 µg/mL (≈ 1.35 µM) | MIC (Staphylococcus aureus, MRSA / USA100 / VRSA, S. aureus IHMA 672230, VRS1, MRSA / VRSA, USA100, read-out: MIC): 0.5 µg/mL (≈ 1.35 µM) | MIC (Staphylococcus aureus, MRSA / USA100 / VRSA, S. aureus IHMA 672231, VRS2, MRSA / VRSA, USA100, read-out: MIC): 0.5 µg/mL (≈ 1.35 µM) | MIC (Staphylococcus aureus, MRSA / USA100 / VRSA, S. aureus IHMA 672234, VRS4, MRSA / VRSA, USA100, read-out: MIC): 0.5 µg/mL (≈ 1.35 µM) | MIC (Staphylococcus aureus, MRSA / USA100 / VRSA, S. aureus IHMA 672235, VRS5, MRSA / VRSA, USA100, read-out: MIC): 1 µg/mL (≈ 2.7 µM) | MIC (Staphylococcus aureus, MRSA / USA100 / VRSA, S. aureus IHMA 672237, VRS7, MRSA / VRSA, USA100, read-out: MIC): 0.5 µg/mL (≈ 1.35 µM) | MIC (Staphylococcus aureus, MRSA / USA100 / VRSA, S. aureus IHMA 672238, VRS8, MRSA / VRSA, USA100, read-out: MIC): 0.5 µg/mL (≈ 1.35 µM) | MIC (Staphylococcus aureus, MRSA / USA100 / VRSA, S. aureus IHMA 672239, VRS9, MRSA / VRSA, USA100, read-out: MIC): 0.5 µg/mL (≈ 1.35 µM) | MIC (Staphylococcus aureus, MRSA / USA100 / VRSA, S. aureus IHMA 1308256, VRS10, MRSA / VRSA, USA100, read-out: MIC): 1 µg/mL (≈ 2.7 µM) | MIC (Staphylococcus aureus, MRSA / USA100 / VRSA, S. aureus IHMA 1308258, VRS11b, MRSA / VRSA, USA100, read-out: MIC): 0.5 µg/mL (≈ 1.35 µM) | MIC (Staphylococcus aureus, MRSA / USA800 / VRSA, S. aureus IHMA 672233, VRS3b, MRSA / VRSA, USA800, read-out: MIC): 0.25 µg/mL (≈ 0.675 µM) | MIC (Staphylococcus aureus, MRSA / VISA / VRSA, all isolates of the panel (MRSA, VISA, VRSA), read-out: MIC against all tested S. aureus clinical isolates): ≤ 1 µg/mL | MIC (Staphylococcus aureus, MRSA, S. aureus IHMA 1569509, MRSA / VSSA, read-out: MIC): 0.25 µg/mL (≈ 0.675 µM) | MIC (Staphylococcus aureus, MRSA, S. aureus IHMA 1575268, MRSA / VSSA, read-out: MIC): 1 µg/mL (≈ 2.7 µM) | MIC (Staphylococcus aureus, MRSA, S. aureus IHMA 1575629, MRSA / VSSA, read-out: MIC): 0.5 µg/mL (≈ 1.35 µM) | MIC (Staphylococcus aureus, MRSA, S. aureus IHMA 1577820, MRSA / VSSA, read-out: MIC): 1 µg/mL (≈ 2.7 µM) | MIC (Staphylococcus aureus, MRSA, S. aureus IHMA 1580300, MRSA / VSSA, read-out: MIC): 0.5 µg/mL (≈ 1.35 µM) | MIC (Staphylococcus aureus, MRSA, S. aureus IHMA 1580940, MRSA / VSSA, read-out: MIC): 0.5 µg/mL (≈ 1.35 µM) | MIC (Staphylococcus aureus, MRSA, S. aureus IHMA 1582100, MRSA / VSSA, read-out: MIC): 0.5 µg/mL (≈ 1.35 µM) | MIC (Staphylococcus aureus, MRSA, S. aureus IHMA 1583795, MRSA / VSSA, read-out: MIC): 1 µg/mL (≈ 2.7 µM) | MIC (Staphylococcus aureus, MRSA, S. aureus IHMA 1584223, MRSA / VSSA, read-out: MIC): 1 µg/mL (≈ 2.7 µM) | MIC (Staphylococcus aureus, MRSA, S. aureus IHMA 1585316, MRSA / VSSA, read-out: MIC): 0.25 µg/mL (≈ 0.675 µM) | MIC (Staphylococcus aureus, MRSA, S. aureus IHMA 1586780, MRSA / VSSA, read-out: MIC): 0.5 µg/mL (≈ 1.35 µM) | MIC (Staphylococcus aureus, MRSA, S. aureus IHMA 1587322, MRSA / VSSA, read-out: MIC): 0.5 µg/mL (≈ 1.35 µM) | MIC (Staphylococcus aureus, MRSA, S. aureus IHMA 1588127, MRSA / VSSA, read-out: MIC): 0.5 µg/mL (≈ 1.35 µM) | MIC (Staphylococcus aureus, MRSA, S. aureus IHMA 1591462, MRSA / VSSA, read-out: MIC): 0.25 µg/mL (≈ 0.675 µM) | MIC (Staphylococcus aureus, MRSA, S. aureus IHMA 1592755, MRSA / VSSA, read-out: MIC): 0.5 µg/mL (≈ 1.35 µM) | MIC (Staphylococcus aureus, MRSA, S. aureus IHMA 1592776, MRSA / VSSA, read-out: MIC): 0.5 µg/mL (≈ 1.35 µM) | MIC (Staphylococcus aureus, MRSA, S. aureus IHMA 1597106, MRSA / VSSA, read-out: MIC): 1 µg/mL (≈ 2.7 µM) | MIC (Staphylococcus aureus, MRSA, S. aureus IHMA 1602095, MRSA / VSSA, read-out: MIC): 0.5 µg/mL (≈ 1.35 µM) | MIC (Staphylococcus aureus, MRSA, S. aureus IHMA 1611170, MRSA / VSSA, read-out: MIC): 0.5 µg/mL (≈ 1.35 µM) | MIC (Staphylococcus aureus, MRSA, S. aureus IHMA 1611612, MRSA / VSSA, read-out: MIC): 0.5 µg/mL (≈ 1.35 µM) | MIC (Staphylococcus aureus, MRSA, S. aureus IHMA 1612228, MRSA / VSSA, read-out: MIC): 0.5 µg/mL (≈ 1.35 µM) | MIC (Staphylococcus aureus, MRSA, S. aureus IHMA 1620441, MRSA / VSSA, read-out: MIC): 0.5 µg/mL (≈ 1.35 µM) | MIC (Staphylococcus aureus, MRSA, S. aureus IHMA 1621638, MRSA / VSSA, read-out: MIC): 1 µg/mL (≈ 2.7 µM) | MIC (Staphylococcus aureus, MRSA, S. aureus IHMA 1622252, MRSA / VSSA, read-out: MIC): 1 µg/mL (≈ 2.7 µM) | MIC (Staphylococcus aureus, MRSA, S. aureus IHMA 1622527, MRSA / VSSA, read-out: MIC): 0.25 µg/mL (≈ 0.675 µM) | MIC (Staphylococcus aureus, MRSA, S. aureus IHMA 1666371, MRSA / VSSA, read-out: MIC): 0.5 µg/mL (≈ 1.35 µM) | MIC (Staphylococcus aureus, MRSA, S. aureus IHMA 1695391, MRSA / VSSA, read-out: MIC): 0.25 µg/mL (≈ 0.675 µM) | MIC (Staphylococcus aureus, MRSA, S. aureus IHMA 1703428, MRSA / VSSA, read-out: MIC): 1 µg/mL (≈ 2.7 µM)
